Results on 34 compounds are retold here after patent US9663475B2, “2 amino-3,4-dihydrcquinazoline derivatives and the use thereof as cathepsin D inhibitors” (Merck Patent GmbH, priority 2013, dated 2017).

Non-standard residues stand in square brackets, D forms with d. Residues, ends and D or L forms follow the SMILES beside them. *: point of attachment. Sta = CC(C)C[C@H](N)[C@@H](O)CC(=O)O; Isovaleryl = CC(C)CC(=O)*

cathepsin D isolated from the human liver, sequence (P07339 65-161): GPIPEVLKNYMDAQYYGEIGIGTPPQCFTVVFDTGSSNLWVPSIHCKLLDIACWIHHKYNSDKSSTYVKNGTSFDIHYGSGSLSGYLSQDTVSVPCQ
cathepsin D isolated from the human liver, sequence (P07339 169-412): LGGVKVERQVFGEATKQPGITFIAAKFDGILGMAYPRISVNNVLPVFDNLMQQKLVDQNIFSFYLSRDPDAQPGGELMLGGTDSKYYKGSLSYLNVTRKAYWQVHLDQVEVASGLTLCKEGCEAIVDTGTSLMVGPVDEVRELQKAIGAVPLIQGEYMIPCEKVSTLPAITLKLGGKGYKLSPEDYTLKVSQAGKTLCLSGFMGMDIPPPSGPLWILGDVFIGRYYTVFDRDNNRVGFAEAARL

The target of the first series is cathepsin D isolated from the human liver (Homo sapiens (Human), UniProt P07339). Briefly: In-vitro fluorescence assay for identification of cathepsin D inhibitors. The series is classed as biochemical. The note with it: human liver cathepsin D 1.4 nM, pH 5.5, substrate 5 μM; read-out: Cath D IC50. How it is done:
In order to identify modulators of cathepsin D activity, a continuous enzymatic test was carried out with a synthetic peptide which carries a fluorescent group (MCA=(7-methoxycoumarin-4-yl)acetyl) which is quenched by energy transfer from a Dpn (2,4 dinitrophenyl) group on the same molecule, in Greiner 384-well nb microtitre plates. Cleavage of the peptidic substrate by cathepsin D causes an increase in the fluorescence intensity. In order to determine the efficacy of substances, the time-dependent increase in the fluorescence intensity in the presence of the substance was compared with the time-dependent increase in fluorescence in the absence of substances. The reference substance used was pepstatin A (Sigma-Aldrich). The substrate used was MCA-GKPILFFRLK(Dnp)d-R—NH2 (Enzo Life Sciences, Lörach). The enzyme employed was cathepsin D isolated from the human liver (Sigma-Aldrich) in a final concentration of 1.4 nM. The test was carried out in 100 mM sodium acetate buffer, 1.25% (v/v) of DMSO, 0.25% (w/v) of Chaps, pH 5.5. 2 μl of each substance solution with serially diluted substance concentration were added to in each case 4 μl of cathepsin D solution and incubated at room temperature for 10 min. The reaction was started by addition of 2 μl of substrate solution (final concentration 5 μM). After carrying out a starting-point fluorescence measurement (excitation wavelength 340 nm/emission wavelength 450 nm) using an Envision multilabel reader (Perkin Elmer), the reaction was incubated at room temperature for 60 min. The amount of peptide fragment cleaved off during the reaction time was subsequently measured by determination of the increase in the fluorescence intensity at 450 nm (excitation wavelength 340 nm).
The IC50 values of the compounds according to the invention can be obtained from Table 2 from Example 1.
Take `NC1=Nc2cc(C(F)(F)F)ccc2CN1C1CCc2ccccc21` (stereo not shown) [Compound A13, 3-indan-1-yl-7-trifluoromethyl-3,4-dihydroquinazolin-2-ylamine]: the concentration for half-maximal inhibition (IC50) worked out at 2500 nM.
Consider `NC1=Nc2cc(C(=O)N3CCCC3Cc3ccccc3)ccc2CN1C1Cc2ccccc2C1` (stereo not shown) [Compound A29, (2-amino-3-indan-2-yl-3,4-dihydroquinazolin-7-yl)-(2-benzylpyrrolidin-1-yl)methanone], for which the IC50 was found to be 310 nM.
As for `CCc1ccc2c(c1)N=C(N)N(C1Cc3ccc(OC)cc3C1)C2` (stereo not shown) [Compound A17, 7-ethyl-3-(5-methoxyindan-2-yl)-3,4-dihydroquinazolin-2-ylamine], the concentration for half-maximal inhibition (IC50) was determined as 270 nM.
The same measure, in the same setting: for `NC1=Nc2cc(C(F)(F)F)ccc2CN1C1CCc2ccccc2C1` (stereo not shown) [Compound A20, 3-(1,2,3,4-tetrahydronaphthalen-2-yl)-7-trifluoromethyl-3,4-dihydroquinazolin-2-ylamine] the value was 3800 nM; for `COc1cccc2c1CC(N1Cc3ccc(Cl)cc3N=C1N)C2` (stereo not shown) [Compound A12, 7-chloro-3-(4-methoxyindan-2-yl)-3,4-dihydroquinazolin-2-ylamine], 810 nM.
Take `COc1ccc2c(c1OC)CC(N1Cc3ccc(Cl)cc3N=C1N)C2` (stereo not shown) [Compound A11, 7-chloro-3-(4,5-dimethoxyindan-2-yl)-3,4-dihydroquinazolin-2-ylamine]: the IC50 amounted to 780 nM.
As for `COc1ccc2c(c1)CC(N1Cc3ccc(Cl)cc3N=C1N)C2` (stereo not shown) [Compound A14, 7-chloro-3-(5-methoxyindan-2-yl)-3,4-dihydroquinazolin-2-ylamine], the half-inhibitory concentration (IC50) was 620 nM.
On to `Nc1nc2cc(C(F)(F)F)ccc2c(=O)n1C1Cc2ccccc2C1` [Compound A27, 2-amino-3-indan-2-yl-7-trifluoromethyl-3H-quinazolin-4-one], for which the half-maximal inhibitory concentration (IC50) turned out to be 3300 nM.
As for `NC1=Nc2cc(C(=O)N3CCOCC3)ccc2CN1C1Cc2ccccc2C1` [Compound A26, (2-amino-3-indan-2-yl-3,4-dihydroquinazolin-7-yl)morpholin-4-ylmethanone], the 50% inhibitory concentration (IC50) worked out at 3000 nM.
On the same count and under the same terms, for `COc1cc2c(cc1OC)CC(N1Cc3ccc(Cl)cc3N=C1N)C2` [Compound A9, 7-chloro-3-(5,6-dimethoxyindan-2-yl)-3,4-dihydroquinazolin-2-ylamine] the value was 510 nM.
Regarding `COc1ccc2c(c1)CC(N1Cc3ccc(C(F)(F)F)cc3N=C1N)C2` (racemic) [Compound A16, 3-(5-methoxyindan-2-yl)-7-trifluoromethyl-3,4-dihydroquinazolin-2-ylamine], the IC50 stood at 170 nM.
On to `NC1=Nc2cc(C(=O)N3CCOc4ccccc43)ccc2CN1C1Cc2ccccc2C1` [Compound A30, (2-amino-3-indan-2-yl-3,4-dihydroquinazolin-7-yl)-(2,3-dihydrobenzo[1,4]oxazin-4-yl)methanone], for which the 50% inhibitory concentration (IC50) is 240 nM.
As to `NC1=Nc2cc(C(=O)N3CCc4ccccc43)ccc2CN1C1Cc2ccccc2C1` [Compound A21, (2-amino-3-indan-2-yl-3,4-dihydroquinazolin-7-yl)-(2,3-dihydroindol-1-yl)methanone], the 50% inhibitory concentration (IC50) is 220 nM.
On to `CCCc1ccc2c(c1)N=C(N)N(C1Cc3ccccc3C1)C2` [Compound A7, 3-indan-2-yl-7-propyl-3,4-dihydroquinazolin-2-ylamine], for which the IC50 amounted to 140 nM.
On the same count and under the same terms, the value for `NNc1nc2cc(C(F)(F)F)ccc2c(=O)n1C1Cc2ccccc2C1` [Compound A28, 2-hydrazino-3-indan-2-yl-7-trifluoromethyl-3H-quinazolin-4-one] was 24000 nM; that for `NC1=Nc2cc(Cl)ccc2CN1C1Cc2ccccc2C1` [Compound A3, 7-chloro-3-indan-2-yl-3,4-di hydroquinazolin-2-ylamine] was 960 nM.
Still for that read-out and setting: for `NC1=Nc2cc(C(F)(F)F)ccc2CN1C1Cc2ccccc2C1` [Compound A10, 3-indan-2-yl-7-trifluoromethyl-3,4-dihydroquinazolin-2-ylamine] the value was 300 nM; for `CCN(CC)C(=O)c1ccc2c(c1)N=C(N)N(C1Cc3ccccc3C1)C2` [Compound A24, N,N-diethyl-2-amino-3-indan-2-yl-3,4-dihydroquinazoline-7-carboxamide], 4200 nM; for `CO[C@@H]1c2ccccc2C[C@@H]1N1Cc2ccc(C(F)(F)F)cc2NC1=N` [Compound A31, 3-((1R,2S)-1-methoxyindan-2-yl)-7-trifluoromethyl-3,4-dihydro-1H-quinazolin-2-ylidenamine], 2500 nM.
As for `NC1=Nc2cc(C(F)(F)F)ccc2CN1C1c2ccccc2-c2ccccc21` [Compound A15, 3-(9H-fluoren-9-yl)-7-trifluoromethyl-3,4-dihydroquinazolin-2-ylamine], the 50% inhibitory concentration (IC50) amounted to 1200 nM.
With `COc1ccc2c(c1)C[C@H](N1Cc3ccc(C(F)(F)F)cc3N=C1N)C2` (single isomer, unassigned) [Compound A19], the concentration for half-maximal inhibition (IC50) worked out at 320 nM.
Take `NC1=Nc2ccccc2CN1C1Cc2ccccc2C1` [Compound A1, 3-indan-2-yl-3,4-dihydroquinazolin-2-ylamine]: the IC50 worked out at 2700 nM.
Turning to `COc1ccc2c(c1)C[C@@H](N1Cc3ccc(C(F)(F)F)cc3N=C1N)C2` (single isomer, unassigned) [Compound A18], the IC50 came to 270 nM.
Consider `COc1cc2c(cc1OC)CC(N1Cc3ccc(Cl)cc3N=C1N)C2` [Compound A8, 7-chloro-3-(5,6-dimethoxyindan-2-yl)-3,4-dihydroquinazolin-2-ylamine], for which the IC50 worked out at 1100 nM.
Same read-out and setting: for `CCN(CC)C(=O)c1ccc2c(c1)N=C(N)N(C1Cc3ccccc3C1)C2` [Compound A23, N,N-diethyl-2-amino-3-indan-2-yl-3,4-dihydroquinazoline-7-carboxamide] the value was 2900 nM.
Regarding `NC1=Nc2cc(C(=O)N3CCOCC3)ccc2CN1C1Cc2ccccc2C1` [Compound A25, (2-amino-3-indan-2-yl-3,4-dihydroquinazolin-7-yl)morpholin-4-ylmethanone], the IC50 is 2500 nM.
As to `NC1=Nc2cccc(Cl)c2CN1C1Cc2ccccc2C1` [Compound A4, 5-chloro-3-indan-2-yl-3,4-di hydroquinazolin-2-ylamine], the IC50 is 8400 nM.
As to `NC1=Nc2ccccc2CN1C1Cc2ccccc2C1` [Compound A2, 3-indan-2-yl-3,4-dihydroquinazolin-2-ylamine], the IC50 was 2300 nM.
With `COc1ccc2c(c1)CN(C(=O)c1ccc3c(c1)N=C(N)N(C1Cc4ccccc4C1)C3)C2` [Compound A22, (2-amino-3-indan-2-yl-3,4-dihydroquinazolin-7-yl)-(5-methoxy-1,3-dihydroisoindol-2-yl)methanone], the half-maximal inhibitory concentration (IC50) is 180 nM.
On to `NC1=Nc2cc(Cl)ccc2CN1C1CCCc2ccccc21` (stereo not shown) [Compound A6, 7-chloro-3-(1,2,3,4-tetrahydronaphthalen-1-yl)-3,4-dihydroquinazolin-2-ylamine], for which the 50% inhibitory concentration (IC50) came to 1400 nM.
Take `NC1=Nc2cc(-c3ccccc3)ccc2CN1C1Cc2ccccc2C1` [Compound A5, 3-indan-2-yl-7-phenyl-3,4-dihydroquinazolin-2-ylamine]: the IC50 is 2200 nM.

For another series, the system named is cartilage explant cultures.
Experiment: not given
The note with it: pH 5.5, explant cultures (mouse, cow or human); cited from earlier work.
On to `CC(C)CC(=O)N[C@H](C(=O)N[C@H](C(=O)N[C@@H](CC(C)C)[C@@H](O)CC(=O)N[C@@H](C)C(=O)N[C@@H](CC(C)C)[C@@H](O)CC(=O)O)C(C)C)C(C)C` [pepstatin] (Isovaleryl-VV[Sta]A[Sta]-OH), for which the “inhibition of autodigestion of the cartilage” value was “inhibited virtually completely”.
Consider `CC(C)c1nc(CN(C)C(=O)N[C@H](C(=O)N[C@@H](Cc2ccccc2)C[C@H](O)[C@H](Cc2ccccc2)NC(=O)OCc2cncs2)C(C)C)cs1` [ritonavir], for which the “inhibition of autodigestion of the cartilage” value was “inhibited virtually completely”.

A further series has as its system rat knee joint. Kind of series: Anti-hyperalgesic effect in animals: carrageenan-induced knee joint inflammation, swelling and Hargreaves test. In kind it is in vivo. The following applies: intra-articular, 30 minutes before CAR, TAC 10 μg/joint.
Protocol: In order to induce an inflammation reaction, a carrageenan solution (CAR, 1%, 50 μl) was injected intra-articularly on one side into a rat knee joint. The uninjected side was used for control purposes. Six animals per group were used. The threshold was determined by means of a micrometer screw (medial-lateral on the knee joint), and the thermal hyperalgesia was determined by means of a directed infrared light source by the Hargreaves method (Hargreaves et al., 1988) on the sole of the foot. […] Experimental description of thermal hyperalgesia (Hargreaves test): the experimental animal is placed in a plastic chamber on a quartz sheet. Before testing, the experimental animal is firstly given about 5-15 minutes time to familiarise itself with the environment. As soon as the experimental animal no longer moves so frequently after the familiarisation phase (end of the exploration phase), the infrared light source, whose focus is in the plane of the glass bottom, is positioned directly beneath the rear paw to be stimulated. […] Light reflected by the paw is recorded as long as the experimental animal sits still. Withdrawal of the paw interrupts this reflection, after which the infrared light source is switched off and the time from switching on to switching off is recorded. […]
Consider `C[C@]12C=CC(=O)C=C1CC[C@H]1[C@@H]3C[C@@H](O)[C@](O)(C(=O)CO)[C@@]3(C)C[C@H](O)[C@@]12F` [TAC, Triamcinolone], for which the “reduction of CAR-induced swelling” value is given as “capable of reducing the CAR-induced swelling”.

Tested on in a further series: not listed separately
Briefly: Stability in plasma (h/r/m) or at pH 1.2 or pH 7.4. The series is classed as in vitro ADME. The following applies: recovery after 4 h. How it is done: Stable: Recovery 75% after 4 h.
With `CCc1ccc2c(c1)N=C(N)N(C1Cc3ccc(OC)cc3C1)C2` (stereo not shown) [Compound A17, 7-ethyl-3-(5-methoxyindan-2-yl)-3,4-dihydroquinazolin-2-ylamine], the “Stability in plasma (h/r/m) or at pH 1.2 or pH 7.4” value (“Stability in plasma” below) is recorded as “stable (Stable: Recovery 75% after 4 h.)”.
On to `COc1ccc2c(c1)CC(N1Cc3ccc(Cl)cc3N=C1N)C2` (stereo not shown) [Compound A14, 7-chloro-3-(5-methoxyindan-2-yl)-3,4-dihydroquinazolin-2-ylamine], for which the “Stability in plasma” value is given as “stable (Stable: Recovery 75% after 4 h.)”.
As to `COc1ccc2c(c1)CC(N1Cc3ccc(C(F)(F)F)cc3N=C1N)C2` (racemic) [Compound A16, 3-(5-methoxyindan-2-yl)-7-trifluoromethyl-3,4-dihydroquinazolin-2-ylamine], the “Stability in plasma” value was “stab;e”.
As for `CCCc1ccc2c(c1)N=C(N)N(C1Cc3ccccc3C1)C2` [Compound A7, 3-indan-2-yl-7-propyl-3,4-dihydroquinazolin-2-ylamine], the “Stability in plasma” value was “stable (Stable: Recovery 75% after 4 h.)”.
Still for that read-out and setting: for `NC1=Nc2cc(C(F)(F)F)ccc2CN1C1Cc2ccccc2C1` [Compound A10, 3-indan-2-yl-7-trifluoromethyl-3,4-dihydroquinazolin-2-ylamine] the value was “stable (Stable: Recovery 75% after 4 h.)”; for `NC1=Nc2ccccc2CN1C1Cc2ccccc2C1` [Compound A1, 3-indan-2-yl-3,4-dihydroquinazolin-2-ylamine], “stable (Stable: Recovery 75% after 4 h.)”.

As usually defined, the IC50 is the point on the concentration scale where inhibition reaches its midpoint.
